# Assay results: patent publication US20160279236A1, “USE OF RAPAMYCIN AS VACCINE ADJUVANT AND PREPARATION METHOD THEREFOR” (INSTITUT PASTEUR OF SHANGHAI, CHINESE ACADEMY OF SCIENCES, priority 2013, published 2016)
# “Also recorded” adds a separate entry of the source.
# Key:
# BMDMs = assay: Real-time quantitative PCR of gene expression in LPS-stimulated BMDMs; assay type: cell-based, C57BL/6 mice; details: 100 nM rapamycin
# Protocol: Bone marrow stem cells of 6-8 weeks aged C57BL/6 mice were taken, and the cells are cultivated at 10^6 cells/mL cell density in bone marrow-derived macrophage (BMDM) differentiation medium (formulation of which was: RPMI 1640 complete medium added with 30% (v/v) L929 conditioned medium and 1% (v/v) pen/strep). After differentiation for 4 days, the old culture medium (comprising suspended cells) was removed and fresh BMDM differentiation medium was added. The adhered BMDMs were collected on the 7th day of differentiation and used in in vitro experiment.
# The BMDMs were pre-treated with 100 nM of rapamycin or DMSO for 1 hour, and then the cells were stimulated with 100 ng/ml LPS […]. The cells were collected at 1, 2, 4 and 8 hours, and were cryopreserved in a refrigerator at −80° C. for the extraction and preparation of RNA.
# TRIZOL (Invitrogen) method was used to extract RNA of BMDM, and Superscript™ III Reverse Transcriptase Kit (Invitrogen) was used to respectively reverse transcribe 1 μg RNA so as to synthesize the first-strand cDNA for Real-time quantitative PCR determine of gene expression levels. The primers for Real-time quantitative PCR are shown in table 1. ΔΔ method was used to calculate the relative expression level of the determined gene compared with GAPDH.
# BMDCs = assay: IL-12 expression (ELISA) in BMDCs stimulated by Toll-like receptor agonists with or without rapamycin; assay type: cell-based, mouse; details: rapamycin 100 nM 1 hour
# Protocol: The present inventors have firstly studied the influence of rapamycin on IL-12 expression induced by a variety of Toll-like receptors agonist including polyI:C by in vitro experiments. Dendritic cells differentiated from mouse bone marrow cells (BMDCs differentiated for 7 days with 20 ng/ml GM-CSF and 10 ng/ml IL-4) were pre-treated with or without rapamycin (100 nM) for 1 hour, and stimulated by LPS (100 ng/ml), MPL (1 μg/ml), R848 (1 μg/ml) and polyI:C (20 μg/ml) respectively for 24 hours, and cell culture media were taken to determine the content of IL-12 by ELISA.
# [1] = tested on: HBsAg-specific antibody and T cell responses; assay: HBsAg VLP immunization of mice with adjuvants: antibody titers and Elispot T cell responses; assay type: in vivo, C57BL/6 mice
# Protocol: Virus-like particles (VLP) consisting of (HBV) outer membrane protein antigens is one of the few successful recombinant vaccines clinically used. Aluminum adjuvant (Alum) can only enhance the immune response of VLP in health populations, while it is of limited effects in the elderly people and patients with renal dysfunction. […] In order to further analyze the adjuvant activity of rapamycin, C57BL/6 mice were immunized by the inventors using HBsAg VLP (5 μg/mouse) (Shanghai Yemin Biotechnology Co., Ltd., Item number YM-101) as antigen in mixture with Alum (200 μg/mouse), Alum (200 μg/mouse)+MPL (10 μg/mouse), MPL (10 μg/mouse)+rapamycin (100 μg/mouse) respectively, and was immunized with HBsAg (without MPL or rapamycin) 3 weeks after the primary immunization. The mice were killed 2 weeks after the secondary immunization, and blood was taken to determine the content of HBsAg-specific IgG1, IgG2b, IgG2c. To test HBsAg-specific T cell responses, the inventors have determined HBsAg-specific induced Th1, Th17 and Th2 responses by Elispot (Elispot Assay).
# The specific operations are listed as follows: spleen cells were inoculated at 5×10^5 cells per-well into Elispot 96-wells plate of IFNγ, IL-17 or IL-4, and treated or untreated (control) with HBsAg (10 μg/ml) or CD8 peptides (10 μg/ml, […], VWLSVIWM, China Peptides Co., LTD., Shanghai), incubated under 37° C., 5% CO2 for two days. The cells and supernatants were removed. The plates were washed with PBST for 5 times, then incubated with 50 μl of 2 μg/ml biotin-coupled IFNγ (ebioscience, cat No: 13-7312), IL-17 (ebioscience, cat No: 13-7177) or IL-4 (Mabtech, cat No: 3311-6-250) detecting antibody under 37° C. for 2 hours, washed with PBST for 5 times, then incubated with 100 μl of 1000-fold diluted Streptavidin-alkaline phosphatase (Mabtech, cat No: 3310-10) under 37° C. for 1 hour. After this incubation, plates washed with PBST for 3 times, and then washed with PBS for two times. 100 μl of NBT/CPIT substrate (Mabtech, cat No: 3650-10) was added and incubated at room temperature for 0.5 hour. Plates were washed with deionized water for 3 times, and then naturally dried in darkness. The numbers of positive spots was calculated with Elispot Reader, and then statistically analyzed.
# [2] = 100 ng/ml LPS, during 4 hours of LPS stimulation, relative to GAPDH
structure (smiles),measurement,setting,value
CO[C@H]1C[C@@H]2CC[C@@H](C)[C@@](O)(O2)C(=O)C(=O)N2CCCC[C@H]2C(=O)O[C@H]([C@H](C)C[C@@H]2CC[C@@H](O)[C@H](OC)C2)CC(=O)[C@H](C)/C=C(\C)[C@@H](O)[C@@H](OC)C(=O)[C@H](C)C[C@H](C)/C=C/C=C/C=C/1C [rapamycin],expression of IL-10,BMDMs; [2],inhibit the expression
same,transcriptional expression of IL-12a,BMDMs; [2],increased the transcriptional expression; also recorded: promote the transcript expression
same,transcriptional expression of IL-12b,BMDMs; [2],increased the transcriptional expression; also recorded: promote the transcript expression
same,transcriptional expression of IL-23a,BMDMs; [2],increased the transcriptional expression; also recorded: promote the transcript expression
same,transcription and expression of CXCL2,BMDMs; LPS,did not affect the transcription and expression
same,transcription and expression of TNFα,BMDMs; LPS,did not affect the transcription and expression
same,expression of CD40,BMDMs; upon stimulation of LPS,no remarkable influence
same,expression of CD80,BMDMs; upon stimulation of LPS,no remarkable influence
same,expression of CD86,BMDMs; upon stimulation of LPS,no remarkable influence
same,expression of PD-L1,BMDMs; upon stimulation of LPS,remarkably decreased the expression; also recorded: inhibit the expression
same,IL-12 expression induced by lipopolysaccharide,BMDCs; LPS 100 ng/ml 24 hours,enhance
same,IL-12 expression induced by MPL,BMDCs; MPL 1 μg/ml 24 hours,enhance; also recorded: effectively enhanced
same,IL-12 expression induced by R848,BMDCs; R848 1 μg/ml 24 hours,effectively enhanced
same,IL-12 expression induced by polyI:C,BMDCs; polyI:C 20 μg/ml 24 hours,effectively enhanced
same,HBsAg-specific antigen response enhanced by MPL,[1]; FIG. 4a,increased
same,HBsAg-specific CD8+ T cell responses,"[1]; IFNγ Elispot of spleen cells, CD8 peptides, compared with MPL+Alum immunized group",increased
same,HBsAg-specific CD4+ T cell responses,"[1]; IFNγ Elispot of spleen cells, compared with MPL+Alum immunized group",increased
same,HBsAg-specific Th2 cell response,"[1]; IL-4 Elispot, compared with MPL+Alum immunized group",increased
same,HBsAg-specific Th17 cell response,"[1]; IL-17 Elispot, compared with MPL+Alum immunized group",increased
